Results as given in patent publication US6589975B2, “Synthetic compounds for treatment of inflammation” (The Regents of the University of California, priority 1998, dated 2003).
Values joined by “and” are separate entries in the source; they are usually repeats but may differ in a detail not shown here. Equal values may be shown once. Marks after values point to notes of the source that are not given here.

Legend:
[1] = test system: PMA-induced mouse ear edema; assay: Inhibition of PMA-induced inflammation (edema) of the mouse ear; format: in vivo; parameters: Mean (edema): unit not given here; conditions: for ED50, topical inhibition of PMA-induced mouse ear edema: with PMA; for Difference (left ear minus right ear), single animals: listed as Compound I
Description: (§1) The test compound and a known inflammatory agent, phorbol myristate acetate (PMA), are topically applied simultaneously to the left ears of mice. Three hours and 20 minutes following application, the mice are sacrificed. Both left ears and right ears are removed and standard sized bores taken. Edema (inflammation) is measured as the difference in weight between left and right ears. See Van Arman, C. G. (1974) Clin. Pharmacol. Ther. 16:900-904, which is herein incorporated by reference.
as §1, with “Soritin B and” for “The test compound and”, “(PMA), were” for “(PMA), are”, “mice were” for “mice are”, “ears were” for “ears are”, “(inflammation) was” for “(inflammation) is”

[2] = test system: RTX-induced mouse ear edema; assay: Inhibition of resiniferatoxin (RTX)-induced inflammation (edema) of the mouse ear; format: in vivo; parameters: Mean (edema): unit not given here; conditions: for % Inh. Of Edema / Mean (edema) / Mean (difference, edema) / Difference (left ear minus right ear), single animals: RTX 0.1 μg/ear; for ED50 for inhibition of RTX-induced edema: topical, with RTX; for % Inhibition of Edema (RTX-induced edema in mouse ears): Dose 50 μg/ear; for activity in inhibition of RTX-induced edema: in words
Description: Induction of mouse ear edema can be conducted according to known methods. See Inoue, 1-f., N. Nagata, Y. Koshffiara (1993), which is herein incorporated by reference. Compounds to be tested for anti-neurogenic inflammatory activity are topically applied in acetone to the ears of mice in a solution that includes the edema-causing irritant resiniferatoxin (RTX). […] After a 30-minute incubation, the mice are sacrificed, the ears removed, and bores taken and weighed. Edema is measured by subtracting the weight of the right ear (acetone control) from the weight of the left ear (treated). Results are recorded as % decrease (inhibition) or % increase (potentiation) in edema relative to the control group edema.
Soritin B was tested for anti-neurogenic inflammatory activity by topically applying in acetone to the ears of mice in a solution that includes the edema-causing irritant resiniferatoxin (RTX) as provided above. See Inoue, 1-f., N. Nagata, Y. Koshffiara (1993), which is herein incorporated by reference. […] After a 30-minute incubation, the mice are sacrificed, the ears removed, and bores taken and weighed. Edema was measured by subtracting the weight of the right ear (acetone control) from the weight of the left ear (treated). Results were recorded as % decrease (inhibition) or % increase (potentiation) in edema relative to the control group edema.

[3] = Soritin B assay: coloration in solution; format: physicochemical; conditions: dissolved in acetone
[4] = 3.12 μg/ear, PMA 2.0 μg/ear, n = 15
[5] = 6.25 μg/ear, PMA 2.0 μg/ear, n = 15
[6] = 12.5 μg/ear, PMA 2.0 μg/ear, n = 15
[7] = 25 μg/ear, PMA 2.0 μg/ear, n = 15
[8] = 50 μg/ear, listed as Compound I

O=C(c1nc(-c2c[nH]c3ccccc23)c[nH]1)c1c[nH]c2cc(O)ccc12 [Topsentin, topsentin, reference compound]
ED50, topical inhibition of PMA-induced mouse ear edema [1]: 15 μg/ear

COC(=O)C(c1c[nH]c2ccccc12)c1c[nH]c2ccccc12 [Soritin B, bis-(1H-indol-3-yl)-acetic acid methyl ester]
% Inh. Of Edema ([2]; 3.12 μg/ear, n = 15): 7.7% | Mean (edema) ([2]; 3.12 μg/ear, n = 15): 9.1 | % Inh. Of Edema ([2]; 6.25 μg/ear, n = 15): 34.3% | Mean (edema) ([2]; 6.25 μg/ear, n = 15): 6.5* | % Inh. Of Edema ([2]; 12.5 μg/ear, n = 15): 61.0% | Mean (edema) ([2]; 12.5 μg/ear, n = 15): 3.2* | % Inh. Of Edema ([2]; 25 μg/ear, n = 14): 79.2% | Mean (edema) ([2]; 25 μg/ear, n = 14): 1.7* | Mean (edema) ([2]; 50 μg/ear, n = 15): 1.0* | ED50 for inhibition of RTX-induced edema [2]: 10.9 μg/ear | % Inh. Of Edema [1, 4]: 14.6% | Mean (edema) [1, 4]: 10.0** | % Inh. Of Edema [1, 5]: 17.1% | Mean (edema) [1, 5]: 9.7** | % Inh. Of Edema [1, 6]: 27.1% | Mean (edema) [1, 6]: 8.6* | % Inh. Of Edema [1, 7]: 50.0% | Mean (edema) [1, 7]: 5.9* | Mean (edema) ([1]; 50 μg/ear, PMA 2.0 μg/ear, n = 15): 3.4* | ED50, topical inhibition of PMA-induced mouse ear edema [1]: 24.2 μg/ear | color in solution [3]: light amber color

O=CC(c1c[nH]c2ccccc12)c1c[nH]c2ccccc12 [HB-237, 2,2-bis(3,3′indolyl) acetaldehyde]
% Inhibition of Edema (RTX-induced edema in mouse ears) [2]: 50.1% | activity in inhibition of RTX-induced edema [2]: show activity

c1ccc2c(Cc3c[nH]c4ccccc34)c[nH]c2c1 [HB-236, bis(3,3′indolyl)methane]
% Inhibition of Edema (RTX-induced edema in mouse ears) [2]: 59.1% | activity in inhibition of RTX-induced edema [2]: show activity

CC1=C(CC/C(C)=C/CCC2=CC[C@H](C3=CC(=O)O[C@H]3O)O[C@H]2O)C(C)(C)CCC1 [Manoalide, manoalide, reference compound]
ED50, topical inhibition of PMA-induced mouse ear edema [1]: 100 μg/ear

O=C(O)C(c1c[nH]c2ccccc12)c1c[nH]c2ccccc12 [Soritin A, bis-(1H-indol-3-yl)-acetic acid]
% Inh. Of Edema ([2]; 3.12 μg/ear): 49.9% | Mean (difference, edema) ([2]; 3.12 μg/ear): 6.0 mg | Difference (left ear minus right ear), single animals ([2]; 3.12 μg/ear, listed as Compound I): 6.0 mg (2×) and 6.6 mg and 7.1 mg and 4.1 mg and 6.3 mg | % Inh. Of Edema ([2]; 6.25 μg/ear): 33.6% | Mean (difference, edema) ([2]; 6.25 μg/ear): 8.0 mg | Difference (left ear minus right ear), single animals ([2]; 6.25 μg/ear, listed as Compound I): 6.0 mg and 11.2 mg and 7.3 mg and 10.1 mg and 8.3 mg and 5.0 mg | % Inh. Of Edema ([2]; 12.5 μg/ear): 76.8% | Mean (difference, edema) ([2]; 12.5 μg/ear): 2.8 mg | Difference (left ear minus right ear), single animals ([2]; 12.5 μg/ear, listed as Compound I): 3.8 mg and 3.6 mg and 3.1 mg and 1.1 mg and 1.7 mg and 3.4 mg | % Inh. Of Edema ([2]; 25 μg/ear): 87.9% | Mean (difference, edema) ([2]; 25 μg/ear): 1.5 mg | Difference (left ear minus right ear), single animals ([2]; 25 μg/ear, listed as Compound I): 4.1 mg and 0.2 mg and 2.1 mg and 0.6 mg and 0.3 mg | Mean (difference, edema) ([2]; 50 μg/ear): 0.3 mg | % Inh. Of Edema [2, 8]: 97.7% | Difference (left ear minus right ear), single animals [2, 8]: 0.1 mg and −0.2 mg (2×) and 1.5 mg | % Inh. Of Edema ([2]; 50 μg/ear, listed as Soritin A (I)): approximately 97.7% | % Inhibition of Edema (RTX-induced edema in mouse ears) [2]: 97.7% | ED50 for inhibition of RTX-induced edema [2]: 5.1 μg/ear | % Inh. Of Edema ([1]; 3.12 μg/ear, PMA 2 μg/ear): 52.9% | Mean (difference, edema) ([1]; 3.12 μg/ear, PMA 2 μg/ear): 6.4 mg | Difference (left ear minus right ear), single animals ([1]; 3.12 μg/ear, PMA 2 μg/ear): 4.0 mg and 8.7 mg (2×) and 4.3 mg | % Inh. Of Edema ([1]; 6.25 μg/ear, PMA 2 μg/ear): 75.1% | Mean (difference, edema) ([1]; 6.25 μg/ear, PMA 2 μg/ear): 3.4 mg | Difference (left ear minus right ear), single animals ([1]; 6.25 μg/ear, PMA 2 μg/ear): 1.2 mg and 4.5 mg and 2.4 mg and 5.5 mg | % Inh. Of Edema ([1]; 12.5 μg/ear, PMA 2 μg/ear): 77.3% | Mean (difference, edema) ([1]; 12.5 μg/ear, PMA 2 μg/ear): 3.1 mg | Difference (left ear minus right ear), single animals ([1]; 12.5 μg/ear, PMA 2 μg/ear): 4.1 mg and 1.9 mg and 1.2 mg and 5.2 mg | % Inh. Of Edema ([1]; 25 μg/ear, PMA 2 μg/ear): 84.9% | Mean (difference, edema) ([1]; 25 μg/ear, PMA 2 μg/ear): 2.1 mg | Difference (left ear minus right ear), single animals ([1]; 25 μg/ear, PMA 2 μg/ear): 1.7 mg and 3.4 mg and 0.4 mg and 2.8 mg | % Inh. Of Edema ([1]; 50 μg/ear, PMA 2 μg/ear): 87.5% | Mean (difference, edema) ([1]; 50 μg/ear, PMA 2 μg/ear): 1.7 mg | Difference (left ear minus right ear), single animals ([1]; 50 μg/ear, PMA 2 μg/ear): 1.6 mg and 2.2 mg and 1.3 mg and 1.7 mg | potency in reducing PMA-induced mouse ear edema relative to known anti-inflammatories ([1]; in words): greater potency than the known anti-inflammatories hydrocortisone, indomethacin, manoalide and topsentin | ED50, topical inhibition of PMA-induced mouse ear edema [1]: 1.3 μg/ear

C[C@]12CCC(=O)C=C1CC[C@@H]1[C@@H]2[C@@H](O)C[C@@]2(C)[C@H]1CC[C@]2(O)C(=O)CO [Hydrocortisone, hydrocortisone, reference compound]
ED50, topical inhibition of PMA-induced mouse ear edema [1]: 20 μg/ear

COc1ccc2c(c1)c(CC(=O)O)c(C)n2C(=O)c1ccc(Cl)cc1 [Indomethacin, indomethacin, reference compound]
ED50, topical inhibition of PMA-induced mouse ear edema [1]: 250 μg/ear
